From patent US4661516A, “Diaminocyclohexane platinum complexes” (Research Corporation, priority 1984, dated 1987)

What was measured:
[1] = system: Wild type L1210 leukemic cells; assay: In vitro cytotoxicity, wild type L1210 leukemic cells (L1210/0); assay type: cell-based; conditions: for ID50: L1210, 72 hours incubation; for ID50 L1210/0: L1210/0, protocol of Example 14, Tables VII and VIII, 4320 min
Protocol: Four ml of cell suspension (10^5 cells/ml) are added to culture tubes and the appropriate concentration (0.01, 0.1, 1 or 10 μg/ml final concentration) of drug added to the culture tubes. After 72 hours of incubation, the cell concentration of control and experimental cultures are determined with the aid of a Coulter Counter® Model ZBf and the percent inhibition calculated. […]

[2] = BUN (RUN [sic]) with the acute lethality data (Table XIII); assay type: in vivo; conditions: mean + 1 S.D.
[3] = system: L1210 leukemia cells (L1210/PDD); assay: In vitro cytotoxicity / cross-resistance, L1210/PDD (L1210/DDP) cells resistant to cisdiamminedichloroplatinum(II); assay type: cell-based; conditions: L1210/DDP, Tables VII and VIII; 5760 min
Protocol: Four ml of cell suspension were added to culture tubes and the appropriate concentration (0.01, 0.1, 1 or 10 μg/ml final drug concentration) was added. After 96 hours the cell concentration of control and experimental cultures were calculated with the aid of a Coulter Counter® Model ZBf and the percent inhibition calculated.

B16 cells = assay: Melanotic melanoma test, i.p. inoculated B16 melanoma; assay type: in vivo, BDF1 mice; conditions: for Maximal Effective Dose: B16, i.p. days 1, 5 and 9; for % T/C / Long Term Survivors: B16, i.p. days 1, 5 and 9, at maximal effective dose; for Long Term Survivors: 60 days
Protocol: The animals used were BDF1 mice, all of the same sex, weighing a minimum of 18 g. and all within a 4 g. weight range. There were 6 animals per test group. […] The test compounds were administered intraperitoneally on days 1, 5 and 9 at various doses. The animals were weighed and survivors were recorded on a regular basis for 60 days. The median survival time and the ratio of survival time for treated (T)/control (C) animals were calculated. […] The criterion for efficacy is T/C×100≥125%.

L1210/0 leukemia cells = assay: In vivo anti-tumor activity, L1210 (L1210/0), multiple i.p. doses; parameters: species or system BDF1 mice; conditions: for LTS: survivors/treated 50 days after treatment; for Long Term Survivors: days 1, 5 and 9, at maximal effective dose, alive 60 days after tumor inoculation; for Maximal Effective Dose: i.p. on days 1, 5 and 9
Protocol: BDF1 mice were inoculated intraperitoneally with 10^6 L1210 cells. About 24 hours after inoculation of the cells, the mice were injected intraperitoneally with varying dosages of complexes of the present invention. Six mice were used for each dosage level in each experiment with an equal number of control mice inoculated with 10^6 L1210 cells and left untreated with a given complex. The results [%T/C=(survival time of treated animals/survival time of control animals)×100] are set forth below. Long term survival signifies that animals were alive 60 days after inoculation with L1210 cells.
The procedure of Example 16 was repeated except that the treated animals were injected with multiple doses of the complex as indicated below:
The anti-tumor activity of compound number 3 was evaluated against cells sensitive to (L1210/0) and resistant to (L1210/PDD) the standard platinum complex cis-diamminedichloroplatinum(II).
The following complexes were tested in vivo oncolytic activity following 3 i.p. injections (days 1, 5, 9) according to the protocol described in Examples 16 and 17.
BDF1 mice were innoculated intraperitoreally with 10^6 L1210 leukemia cells and treatment was begun on the next day (day 1). Two treatment schedules, i.e. single i.p. injection of the drug and i.p. injections on days 1, 5 and 9 according to the protocol described in Examples 16 and 17 were used.

L1210 cells = assay: In vivo anti-tumor activity, L1210, single i.p. injection; parameters: species or system BDF1 mice; conditions: for Maximal Effective Dose: single i.p. injection; for % T/C: single i.p.
Protocol: About 24 hours after inoculation of the cells, the mice were injected intraperitoneally with varying dosages of complexes of the present invention. […] Long term survival signifies that animals were alive 60 days after inoculation with L1210 cells.

[4] = Acute lethality, single intraperitoneal injection (Table XIII); assay type: in vivo
[5] = 6.25 mg/kg i.p., days 1, 5, 9, 30 day observation period
[6] = 12.5 mg/kg i.p., days 1, 5, 9, 30 day observation period
[7] = 25 mg/kg i.p., days 1, 5, 9, 30 day observation period
[8] = Tables X and XI, i.p. on days 1, 5 and 9, at maximal effective dose
[9] = Table IX, at maximal effective dose

Row | SMILES | ID50 [1] [µg/mL] | ID50 L1210/0 [1] [µg/mL] | RUN [2] [mg/100 ml] | ID50 L1210/DDP [3] [µg/mL] | Maximal Effective Dose (B16 cells) [mg/kg] | % T/C (B16 cells) [%] | Long Term Survivors (B16 cells) | % T/C (L1210/0 leukemia cells; [5]) [%] | % T/C (L1210/0 leukemia cells; [6]) [%] | LTS (L1210/0 leukemia cells; 12.5 mg/kg, days 1, 5, 9) | % T/C (L1210/0 leukemia cells; [7]) [%] | LTS (L1210/0 leukemia cells; 25 mg/kg, days 1, 5, 9) | Long Term Survivors (L1210/0 leukemia cells; Tables X and XI) | Maximal Effective Dose (L1210/0 leukemia cells; Tables X and XI) [mg/kg] | % T/C (L1210/0 leukemia cells; [8]) [%] | Maximal Effective Dose (L1210 cells; Table IX) [mg/kg] | % T/C (L1210 cells; [9]) [%] | LD10 [4] [mg/kg] | LD50 [4] [mg/kg] | LD90 [4] [mg/kg] | further results
1 | NC1CCCCC1N.O.O.O=C([O-])CN(CC(=O)[O-])c1ccccc1.[Pt+2] [Compound 37, N--Phenyliminodiacetato(DACH)Pt(II).2H2 O] | 1.0 | 2.3 | 18 ± 1 | 2.6 | 25 | 215 | 0/6 | 246 | 298 | 5/6 | 242 | 1/6 | 4/6 | 12.5 | 537 | 12.5 | 172 | 56 | 81 | 135 | LTS (L1210/0 leukemia cells; 6.25 mg/kg, days 1, 5, 9): 3/6; % T/C (L1210 cells; 12.5 mg/kg): 172%; % T/C (L1210 cells; 25 mg/kg): 156%; % T/C (L1210 cells; 50 mg/kg): 108%
2 | NC1CCCCC1N.O=C([O-])CN(CC(=O)[O-])Cc1ccccc1.[Pt+2] [Compound 38, N--Benzyliminodiacetato(DACH)Pt(II)] | 2.3 | 1.0 | 27 ± 3 | 0.8 | 12.5 | 207 | 1/6 | 277 | 287 | 1/6 | 240 | 2/6 | 2/6 | 12.5 | 397 | 25 | 170 | 81 | 140 | 210 | % T/C (L1210 cells; 12.5 mg/kg): 123%; % T/C (L1210 cells; 25 mg/kg): 170%; % T/C (L1210 cells; 50 mg/kg): 158%
3 | NC1CCCCC1N.O.O.O=C([O-])CN(CCO)CC(=O)[O-].[Pt+2] [Compound 39, N--(2-Hydroxyethyl)-iminodiacetato(DACH)Pt(II).2H2 O] | 3.0 | 0.7 | 18 ± 2 | 0.9 | 25 | 196 | 2/6 |  |  |  |  |  | 4/6 | 25 | 450 | 25 | 180 | 63 | 150 | 301 | 
